Columns and labels:
TOR2-mTOR L2185A mutant = experiment: Yeast spotting assay for drug resistance, TOR2-mTOR L2185A; type: cell-based, S. cerevisiae; conditions: 37° C., amphotericin B present (except OSI-027)
Source text: (§1) FIGS. 4A-C. […] (FIG. 4A) Scheme of a yeast-based screen for drug-resistant mutations in mTOR kinase domain. mTOR kinase domain is amplified by error-prone PCR to generate randomized mutations, which is then recombined in frame into the TOR2-mTOR plasmid by gap-repair in tort-dg cells, and is selected on SC-leucine minus plates. Replica plating is then made onto SC-leucine plates containing DMSO or mTOR kinase inhibitor for selection of drug resistant clones. (FIG. 4B) tor2-dg cells expressing WT or mutant TOR2-mTOR were serially diluted by 10-fold and assayed for sensitivity to different mTOR kinase inhibitors in the presence of amphotericin B. Vector and TOR2 were used as controls. Drug resistant assay was performed at 37° C. in the presence of amphotericin B (except OSI-027). (FIG. 4C) Systematic mutational analysis of L2185 on drug resistance. tort-dg cells expressing WT or mutant TOR2-mTOR carrying all possible mutations at L2185 were serially diluted by 10-fold and tested for sensitivity to different mTOR kinase inhibitors at 37° C.
(§2) To enhance yeast cell permeability, log phase W303 tort-dg cells were spread evenly on SD-Leu agarose plates. After drying, small sterile filter discs were placed on the surface and 5 μl of indicated mTOR inhibitors or DMSO were applied to each disc with or without adding 5 μl of amphotericin B (10 μM), miconazole (50 μM) or caspofungin (50 μM). Plates were incubated at 37° C. for 3 day. Drug resistance profiles of TOR2-mTOR mutant cells were determined by the spotting assay. For this assay, 10-fold serial dilutions of cells were spotted on SD-leu plates in the presence of indicated mTOR inhibitors with or without amphotericin B (200 nM) and incubated at 37° C. for 3 day.

[1] = tested on: H460 lung cancer cells carrying L2185A mutant mTOR alleles; experiment: SRB growth assay of H460 cells carrying L2185A mutant mTOR; type: cell-based, human; conditions: various concentrations, 2 days
Method: (FIG. 10A) Flag-mTOR(L2185A), when transiently expressed in HEK293T cells, confers drug resistance to mTOR kinase inhibitors. HEK293T cells transiently expressing WT and L2185A mutant Flag-mTOR were treated with various concentrations of INK-128, OSI-027 for 1 hr. The effect on the level of P-S6K, S6K, P-4E-BP1, 4EB-P1, P-AKT and AKT was analyzed by immunoblot. (FIG. 10B) Sequencing verification of genome-engineered SW480 and H460 cells carrying homozygous and heterozygous L2185A mutations in mTOR locus. (FIG. 10C) Independent clones of engineered SW480 cells confer similar drug resistance. Cells were treated with various concentrations of AZD8055 and INK-128 for 2 days. Cell growth was measured by SRB assay. Clones #1, 3 carry heterozygous L2185A mutation. Clones #2, 4 carry homozygous L2185A mutation. […] Cell growth was measured by SRB assay. […] Cell growth was measured by SRB assay. […] The effect on level of P-S6K, P-4E-BP1 and P-AKT was analyzed by immunoblot. […] The growth of H460 cells was measured by SRB assay. […]
Antibodies against tubulin, S6K, phospho-S6K (Thr389), 4E-BP1, phospho-4E-BP1 (Thr37/46), Akt, phospho-Akt (Thr308), and phospho-Akt (Ser473) were purchased from Cell Signaling Technology. […] Cell growth was measured by the sulforhodamine B (SRB) assay as previously described (Vichai, V., and Kirtikara, K. (2006). Nature protocols 1, 1112-1116).

[2] = tested on: SW480 colorectal cancer cells carrying L2185A mutant mTOR alleles; experiment: SRB growth assay of SW480 cells carrying L2185A mutant mTOR; type: cell-based, human; conditions: various concentrations, 2 day
Method: (FIG. 5A) SW480 cells carrying homozygous WT mTOR or L2185A mutant alleles were treated with various concentrations of AZD8055, INK-128, OSI-027 and PP242 for 2 day. Growth of SW480 cells was measured by SRB assay. Data represent means±SD in three independent experiments. (FIG. 5B) SW480 cells carrying homozygous WT and L2185A mutant mTOR allele were treated with a single dose of AZD8055 (100 nM), INK-128 (100 nM), OSI-027 (6,000 nM), and PP242 (2,000 nM) for different times. Cell growth was measured by SRB assay. The drug carrier DMSO was used as a control. Data represent means±SD in three independent experiments. (FIG. 5C) SW480 cells carrying homozygous WT and L2185A mutant mTOR were treated with various concentrations of INK-128, OSI-027, AZD8055 and PP242 for 1 hr. The effect on the level of P-S6K, S6K, P-4E-BP1, 4EB-P1, P-AKT and AKT was analyzed by immunoblot. […] The growth of SW480 cells was measured by SRB assay. Data represent means±SD in three independent experiments.
Cancer cell lines were maintained in DMEM or RPMI 1640, supplemented with 10% fetal bovine serum (Invitrogen) and 1% penicillin/streptomycin (Invitrogen). CRISPR/cas9 technology was used to engineer mutant mTOR allele in SW480 colorectal and H460 lung cancer cells. Briefly, The target sequence for mTOR, […] (SEQ ID NO: 3 was designed through the online tool at crispr.mit.edu, and cloned into pSPCas9(BB)-2A-GFP vector (PX458 in Addgene). Genomic mTOR mutation was engineered using a protocol as described (Ran, et al. (2013). Nature protocols 8, 2281-2308) and was confirmed by targeted sequencing.
Antibodies against tubulin, S6K, phospho-S6K (Thr389), 4E-BP1, phospho-4E-BP1 (Thr37/46), Akt, phospho-Akt (Thr308), and phospho-Akt (Ser473) were purchased from Cell Signaling Technology. […] For drug sensitivity test, cancer cells were seeded in 96-well plates at a density of 2,000 cells per well. 24 hours later, different concentrations of mTOR inhibitors were added in quadruplicate. Cell growth was measured by the sulforhodamine B (SRB) assay as previously described (Vichai, V., and Kirtikara, K. (2006). Nature protocols 1, 1112-1116).

[3] = tested on: Wild type (WT) yeast cells; experiment: Disc halo assay of wild type yeast sensitivity to mTOR kinase inhibitors; type: cell-based, S. cerevisiae; conditions: WT yeast on YPD plates; 5 μl on filter disc, BEZ235 5 μM, other mTOR inhibitors 10 μM; 30° C., 3 day
Method: For the halo assay, log phase W303 wild type or tor2-dg cells were spread evenly on YPD agarose plates. […] Plates were incubated at 30° C. (wild type) or 37° C. (tor2-dg) for 3 day.

TOR2-mTOR L2185C mutant = experiment: Yeast spotting assay for drug resistance, TOR2-mTOR L2185C; type: cell-based, S. cerevisiae; conditions: 37° C., amphotericin B present (except OSI-027)
Source text: as §1, §2

[4] = target: T1, tor2-dg cells expressing TOR2-mTOR fusion (UniProt P32600+P42345); type: cell-based, S. cerevisiae; conditions: 10-fold serial dilutions on plates containing drug
T1 construct: fused in frame with mTOR kinase domain (2140-2549 aa); yeast TOR2 N-terminus (1-2080 aa); expressed in transfected cells; host or cells: S. cerevisiae W303 tor2-dg, centromeric plasmid derived from pML40-TOR2
T1 sequence (P32600+P42345 fused with the stated changes): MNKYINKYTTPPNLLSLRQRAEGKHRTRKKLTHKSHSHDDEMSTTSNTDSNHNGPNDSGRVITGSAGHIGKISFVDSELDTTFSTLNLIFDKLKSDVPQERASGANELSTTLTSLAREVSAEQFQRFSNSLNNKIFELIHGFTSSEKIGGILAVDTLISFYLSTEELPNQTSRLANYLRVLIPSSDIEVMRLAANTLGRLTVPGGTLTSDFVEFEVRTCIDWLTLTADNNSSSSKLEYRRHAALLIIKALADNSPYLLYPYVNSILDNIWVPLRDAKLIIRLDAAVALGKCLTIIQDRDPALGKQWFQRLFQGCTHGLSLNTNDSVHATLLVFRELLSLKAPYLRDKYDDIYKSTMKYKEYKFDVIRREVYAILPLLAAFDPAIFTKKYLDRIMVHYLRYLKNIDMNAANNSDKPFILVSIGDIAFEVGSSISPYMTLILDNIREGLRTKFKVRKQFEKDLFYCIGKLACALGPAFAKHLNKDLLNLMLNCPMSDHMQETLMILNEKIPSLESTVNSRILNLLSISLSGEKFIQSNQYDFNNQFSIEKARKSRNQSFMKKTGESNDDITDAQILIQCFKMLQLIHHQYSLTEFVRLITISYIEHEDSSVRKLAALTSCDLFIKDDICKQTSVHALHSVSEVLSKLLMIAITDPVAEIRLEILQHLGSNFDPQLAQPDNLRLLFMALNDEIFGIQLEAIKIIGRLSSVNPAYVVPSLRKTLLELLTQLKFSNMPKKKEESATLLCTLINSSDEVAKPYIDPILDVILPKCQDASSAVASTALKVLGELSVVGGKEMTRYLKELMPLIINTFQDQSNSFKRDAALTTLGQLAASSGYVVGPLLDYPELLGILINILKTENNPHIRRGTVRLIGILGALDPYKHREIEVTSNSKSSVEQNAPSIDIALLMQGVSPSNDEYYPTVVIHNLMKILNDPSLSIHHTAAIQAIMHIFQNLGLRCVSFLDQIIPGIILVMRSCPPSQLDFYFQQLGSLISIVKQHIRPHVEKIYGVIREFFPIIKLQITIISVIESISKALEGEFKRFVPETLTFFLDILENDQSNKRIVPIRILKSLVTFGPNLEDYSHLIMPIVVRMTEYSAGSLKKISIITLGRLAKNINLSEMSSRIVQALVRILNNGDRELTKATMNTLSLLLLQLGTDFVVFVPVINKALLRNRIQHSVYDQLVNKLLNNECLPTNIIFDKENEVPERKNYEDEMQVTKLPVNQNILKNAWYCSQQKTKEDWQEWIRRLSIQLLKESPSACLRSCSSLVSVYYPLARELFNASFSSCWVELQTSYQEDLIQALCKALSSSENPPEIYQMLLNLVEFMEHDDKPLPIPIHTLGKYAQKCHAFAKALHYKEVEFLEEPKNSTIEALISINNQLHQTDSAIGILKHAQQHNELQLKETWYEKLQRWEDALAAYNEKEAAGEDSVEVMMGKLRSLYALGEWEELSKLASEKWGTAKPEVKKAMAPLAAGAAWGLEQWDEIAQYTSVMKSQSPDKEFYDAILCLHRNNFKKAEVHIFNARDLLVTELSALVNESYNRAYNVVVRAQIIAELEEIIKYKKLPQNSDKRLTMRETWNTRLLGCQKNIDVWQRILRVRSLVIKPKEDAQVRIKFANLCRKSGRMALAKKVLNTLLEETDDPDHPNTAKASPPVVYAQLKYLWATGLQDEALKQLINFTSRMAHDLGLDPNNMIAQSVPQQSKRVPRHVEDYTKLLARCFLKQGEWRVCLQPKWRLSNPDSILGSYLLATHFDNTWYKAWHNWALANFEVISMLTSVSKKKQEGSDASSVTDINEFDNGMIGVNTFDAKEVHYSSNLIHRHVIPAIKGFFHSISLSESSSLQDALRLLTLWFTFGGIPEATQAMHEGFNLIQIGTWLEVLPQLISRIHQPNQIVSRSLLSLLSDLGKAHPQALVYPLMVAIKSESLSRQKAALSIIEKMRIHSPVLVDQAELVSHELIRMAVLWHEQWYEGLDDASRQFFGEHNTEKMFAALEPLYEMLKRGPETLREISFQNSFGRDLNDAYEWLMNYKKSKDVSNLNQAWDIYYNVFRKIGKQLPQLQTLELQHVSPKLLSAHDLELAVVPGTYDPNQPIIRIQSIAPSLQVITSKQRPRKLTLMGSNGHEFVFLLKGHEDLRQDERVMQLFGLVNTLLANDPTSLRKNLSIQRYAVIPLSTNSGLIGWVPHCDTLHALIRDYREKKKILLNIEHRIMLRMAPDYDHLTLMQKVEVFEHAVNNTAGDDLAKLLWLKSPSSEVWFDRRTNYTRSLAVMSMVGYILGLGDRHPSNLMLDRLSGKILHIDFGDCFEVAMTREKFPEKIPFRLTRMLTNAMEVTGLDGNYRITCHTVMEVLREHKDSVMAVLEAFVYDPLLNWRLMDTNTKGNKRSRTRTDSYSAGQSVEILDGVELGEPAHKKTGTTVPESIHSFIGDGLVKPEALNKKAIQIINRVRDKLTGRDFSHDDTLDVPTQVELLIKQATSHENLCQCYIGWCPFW
T1 sequence (P41318 whole entry partner, the tested form may be a part): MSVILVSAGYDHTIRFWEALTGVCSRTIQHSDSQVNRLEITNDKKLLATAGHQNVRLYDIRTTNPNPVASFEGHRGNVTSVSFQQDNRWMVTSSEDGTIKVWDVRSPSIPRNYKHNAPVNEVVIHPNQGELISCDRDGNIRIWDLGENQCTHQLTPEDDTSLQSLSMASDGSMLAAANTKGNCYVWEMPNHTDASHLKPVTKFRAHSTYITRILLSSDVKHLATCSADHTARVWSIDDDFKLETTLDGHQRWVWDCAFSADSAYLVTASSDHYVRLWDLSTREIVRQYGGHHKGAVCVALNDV
Source text: The TOR2-mTOR hybrid plasmid was constructed by replacing the C-terminal region of TOR2 of pML40-TOR2 (Alarcon, et al. (1996). Genes & development 10, 279-288) (encoding for 2080-2474 aa) in frame with a DNA fragment corresponding to C-terminal domain of mTOR (encoding for 2140-2549 aa). To construct mutant TOR2-mTOR plasmids, mTOR C-terminal region was amplified by PCR and co-transformed into yeast with XmaI-digested pML40-TOR2 plasmid that excised the TOR2 C-terminal region. The resultant TOR2-mTOR fusion plasmids are constructed in reading frame by gap-repair in yeast.

[5] = target: T2, tor2-dg cells expressing TOR2 (Saccharomyces cerevisiae, UniProt P32600); experiment: Yeast serial-dilution drug sensitivity assay, tor2-dg cells expressing TOR2; type: cell-based, S. cerevisiae; conditions: 10-fold serial dilutions on plates containing drug
T2 construct: expressed in transfected cells; host or cells: S. cerevisiae W303 tor2-dg, plasmid pML40-TOR2
Source text: FIGS. 1A-E. Developing a yeast system to assay for mTOR kinase inhibition. (FIG. 1A) Wild type (WT) yeast cells were spread onto YPD plates and tested for sensitivity to structurally diverse mTOR kinase inhibitors by disc halo assay. Rapamycin was used as a positive control. (FIG. 1B) The N-terminus of TOR2 (1-2080 aa) was fused in frame with mTOR kinase domain (2140-2549 aa). The TOR2-mTOR fusion is expressed under the control of TOR2 promoter in a centromeric plasmid. (FIG. 1C) Yeast strain expressing WT TOR2 or TOR2-mTOR fusion was analyzed for expression by immunoblot with an antibody specific for mTOR kinase domain. PGK1 was used as a loading control and extracts from MCF7 breast cells were used as a positive control for mTOR. (FIG. 1D) TOR2-mTOR fusion was expressed in tort-dg and tested for its ability to complement TOR2 function by growth at permissive and restrictive temperatures.
To enhance yeast cell permeability, log phase W303 tort-dg cells were spread evenly on SD-Leu agarose plates. After drying, small sterile filter discs were placed on the surface and 5 μl of indicated mTOR inhibitors or DMSO were applied to each disc with or without adding 5 μl of amphotericin B (10 μM), miconazole (50 μM) or caspofungin (50 μM). Plates were incubated at 37° C. for 3 day. Drug resistance profiles of TOR2-mTOR mutant cells were determined by the spotting assay. […]

## Nc1ccc(-c2ccc3ncc4ccc(=O)n(-c5cccc(C(F)(F)F)c5)c4c3c2)cn1 [Torin2]
TOR2-mTOR L2185A mutant
  drug resistance/sensitivity of TOR2-mTOR L2185A mutant yeast: remain sensitive
[1]
  drug resistance/sensitivity of cell growth, H460 L2185A vs WT: remains sensitive
[2]
  drug resistance/sensitivity of cell growth, SW480 L2185A vs WT: remains sensitive
[3]
  inhibition of yeast growth (disc halo assay): inhibit yeast growth
TOR2-mTOR L2185C mutant
  drug resistance/sensitivity of TOR2-mTOR L2185C mutant yeast: remain sensitive

## Cn1c(=O)n(-c2ccc(C(C)(C)C#N)cc2)c2c3cc(-c4cnc5ccccc5c4)ccc3ncc21 [BEZ235]
[1]
  drug resistance/sensitivity of cell growth, H460 L2185A vs WT: remains sensitive
[2]
  drug resistance/sensitivity of cell growth, SW480 L2185A vs WT: remains sensitive
[4]
  drug sensitivity of tor2-dg cells expressing TOR2-mTOR: highly sensitive
[5]
  drug sensitivity (growth inhibition) of tor2-dg cells expressing TOR2: poorly inhibited

— patent publication US10551384B2, “MTOR kinase mutations and methods of use thereof” (RUTGERS, THE STATE UNIVERSITY OF NEW JERSEY, priority 2016, dated 2020)
